Data from patent publication US11013677B2, “Methods and compositions to reduce staining for antibacterial oral care compositions” (Colgate-Palmolive Company, priority 2019, dated 2021).

How the values were obtained:
[1] = Bovine enamel model of CHX staining, FeCl3/CHX/chelator solutions, change in whiteness ΔW*; conditions: for effect on teeth staining caused by CHX: when exposed to an iron solution (FeCl3 + CHX)
Description: (§1) A bovine enamel model was used to mimic CHX staining. The bovine teeth samples were kept hydrated until use. Baseline (L*, a*, and b*) measurements were taken of the samples before treatment using a spectroshade. The samples were then placed in a solution representing each of the treatments of Table 2 and then in artificial saliva. This cycle of soaking in the treatment and in artificial saliva was then repeated 14 times for each sample, with spectroshade measurements taken every two cycles immediately after soaking in the artificial saliva step (the samples were dabbed dry before measurements). Control samples soaked in FeCl3 alone and FeCl3+CHX solutions were also done.
(§2) The L*, a*, and b* values were used to calculate the change in whiteness (ΔW*) for each tooth after treatment as compared to the baseline values using Formulas (1) and (2) below. W*=((a*−0)^2+(b*−0)^2+(L*−100)^2)^1/2 Formula (1) ΔW*=W*treated−W*baseline Formula (2)
The more positive the value of ΔW*, the darker the tooth color is.

[2] = Bovine enamel staining model, CHX oral care compositions with metal chelator, ΔW*; conditions: for effect on CHX-staining (ΔW*): added to an oral care composition containing CHX
Description: as §1, §2
Table 4 illustrates the effects of a metal chelator on CHX-caused staining when incorporating into an oral care composition including CHX according to implementations of the present disclosure. In particular, Table 4 illustrates the ΔW* for 5 oral care compositions containing CHX and measured similarly as described above. The more positive the value of ΔW*, the darker the tooth color is.
Oral Care Composition #1 is a commercially available antimicrobial oral rinse with 0.12% chlorhexidine gluconate. Oral Care Compositions #2-#5 are the same as Oral Care Composition #1 except they include the specified amounts (by weight) of a metal chelator.

O=C(O)CC(NC(CC(=O)O)C(=O)O)C(=O)O (stereo not shown) [Imminodisuccinic acid]
effect on teeth staining caused by CHX [1]: decreased the amount of teeth staining caused by CHX

O=P(O)(O)CN(CP(=O)(O)O)CP(=O)(O)O [ATMP, aminotris(methylenephosphonic acid)]
staining reduction, comparison of chelators ([1]; ATMP versus IDA, every cycle): performed better at every cycle compared to IDA | effect on teeth staining caused by CHX [1]: decreased the amount of teeth staining caused by CHX

[Cl][Fe]([Cl])[Cl] [FeCl3 alone, FeCl3]
ΔW* (change in whiteness) ([1]; Cycle 0 (baseline), more positive = darker tooth): 0 | ΔW* (change in whiteness) ([1]; Cycle 4 of treatment/artificial saliva soaking): 1.31 | ΔW* (change in whiteness) ([1]; Cycle 6 of treatment/artificial saliva soaking): 0.83 | ΔW* (change in whiteness) ([1]; Cycle 8 of treatment/artificial saliva soaking): 0.90 | ΔW* (change in whiteness) ([1]; Cycle 10 of treatment/artificial saliva soaking): 0.64 | ΔW* (change in whiteness) ([1]; Cycle 14 of treatment/artificial saliva soaking): 0.78

N[C@@H](CC(=O)O)C(=O)O [Aspartic acid]
relative performance in reducing CHX-staining ([2]; 1 weight % added to commercial rinse (0.12% chlorhexidine gluconate)): best performers | effect on CHX-staining (ΔW*) [2]: significantly reduced the amount of CHX-staining

N[C@@H](CCC(=O)O)C(=O)O [Glutamic acid]
relative performance in reducing CHX-staining ([2]; 0.2 weight % added to commercial rinse (0.12% chlorhexidine gluconate)): best performers | effect on CHX-staining (ΔW*) [2]: significantly reduced the amount of CHX-staining
